Entries after “also recorded” stand apart in the source; their conditions may differ. Read-outs that look alike come from different tables or passages of the source.
Legend:
nonsense mutations = conditions: 5 ug/ml, UPF1+ and UPF1− strains
Procedure: Effects of drugs at a concentration of 5 μg/ml on nonsense supression in UPF+ and UPF− strains.
UPF1+ and UPF1− strains were treated with 5 ug/ml sparsomycin, anisomycin, and paromomycin, and tested for nonsense suppression.

[1] = test system: killer phenotype (M1 satellite virus); conditions: 3.8 μM anisomycin, after 48 or 72 hours, JD88 cells
Procedure: JD88 cells were cultured in rich medium containing the indicated concentrations of either anisomycin (A) or sparsomycin (B). After 24, 48, 72, 96, or 120 hrs., aliquots of cells were removed, washed twice with sterile water, streaked onto rich medium, and grown to single colonies at 30° C. These were then replica plated onto indicator plates, and scored for their killer phenotypes. Loss of the killer phenotype was measured by dividing the number of non-killer (K^−) colonies by the total number of colonies. Each data set corresponds to >100 total colonies.
After 24, 48, 72, 96, or 120 hrs., aliquots of cells were streaked for single colonies onto rich medium, which were then replica plated onto indicator to score their killer phenotypes.

translation = format: cell-based, Saccharomyces cerevisiae; conditions: JD88 cells, indicated drug concentrations, 30° C. 5 hrs
HIV = format: cell-based, human
tcm1/mak8 mutants = conditions: cited from earlier work
[2] = test system: L-A, M1 and L-BC dsRNA viruses; format: cell-based, Saccharomyces cerevisiae; conditions: 72 hrs at 3.8 μM anisomycin; not confirmed by northern blot
Description: FIG. 12. (A) A single non-killer (K^−) colony from each drug concentration in the 72 hr data set was picked at random and total nucleic acids (TNA) were extracted [Dinman and Wickner, Virology 66:3669 (1992)]. Approximately equal amounts of TNA were separated through a 1% non-denaturing TAE-agarose gel and stained with ethidium bromide. The 4.6 kb L-A and L-BC, and the 1.8 kb M1 dsRNA bands are indicated. (B) RNA was denatured in the gel shown in (A), transferred to nitrocellulose and hybridized with [^32P]CTP labeled L-A and M1 (+) strand RNA probes as described in [Dinman and Wickner, Genetics 136:75 (1994)].
To determine whether loss of the M1 satellite virus was responsible for loss of the killer phenotype, a non-killer (K^−) colony from each drug concentration in the 72 hr data set was picked at random and total nucleic acids (TNA) were extracted [Park et al., Virology 216:451 (1996)]. Approximately equal amourits of TNA were separated through a 1% non-denaturing TAE-agarose gel and stained with ethidium bromide (FIG. 12A). As expected, the 1.8 kb M1 dsRNA band is not present in the K^− (drug treated) samples. Further, L-A appears to have also been cured by these drugs. […]
Recently the cDNA sequence of L-BC (also known as La), a ubiquitous minor dsRNA virus of yeast has been determined [Park et al., supra]. […]

human host cells = format: cell-based
Procedure: Antiviral activities of these antibiotics were also tested against HIV.

[3] = test system: Saccharomyces cerevisiae strains (wildtype, mof4-1); format: cell-based; conditions: 30° C. 4 days
Upf2p = molecular target: T1, Upf2p (Saccharomyces cerevisiae, UniProt P38798 1-1089, limits assumed); test: two-hybrid system
T1 construct: Tested in a two-hybrid system; also called product of the UPF2/IFS1 gene
T1 sequence (looked up): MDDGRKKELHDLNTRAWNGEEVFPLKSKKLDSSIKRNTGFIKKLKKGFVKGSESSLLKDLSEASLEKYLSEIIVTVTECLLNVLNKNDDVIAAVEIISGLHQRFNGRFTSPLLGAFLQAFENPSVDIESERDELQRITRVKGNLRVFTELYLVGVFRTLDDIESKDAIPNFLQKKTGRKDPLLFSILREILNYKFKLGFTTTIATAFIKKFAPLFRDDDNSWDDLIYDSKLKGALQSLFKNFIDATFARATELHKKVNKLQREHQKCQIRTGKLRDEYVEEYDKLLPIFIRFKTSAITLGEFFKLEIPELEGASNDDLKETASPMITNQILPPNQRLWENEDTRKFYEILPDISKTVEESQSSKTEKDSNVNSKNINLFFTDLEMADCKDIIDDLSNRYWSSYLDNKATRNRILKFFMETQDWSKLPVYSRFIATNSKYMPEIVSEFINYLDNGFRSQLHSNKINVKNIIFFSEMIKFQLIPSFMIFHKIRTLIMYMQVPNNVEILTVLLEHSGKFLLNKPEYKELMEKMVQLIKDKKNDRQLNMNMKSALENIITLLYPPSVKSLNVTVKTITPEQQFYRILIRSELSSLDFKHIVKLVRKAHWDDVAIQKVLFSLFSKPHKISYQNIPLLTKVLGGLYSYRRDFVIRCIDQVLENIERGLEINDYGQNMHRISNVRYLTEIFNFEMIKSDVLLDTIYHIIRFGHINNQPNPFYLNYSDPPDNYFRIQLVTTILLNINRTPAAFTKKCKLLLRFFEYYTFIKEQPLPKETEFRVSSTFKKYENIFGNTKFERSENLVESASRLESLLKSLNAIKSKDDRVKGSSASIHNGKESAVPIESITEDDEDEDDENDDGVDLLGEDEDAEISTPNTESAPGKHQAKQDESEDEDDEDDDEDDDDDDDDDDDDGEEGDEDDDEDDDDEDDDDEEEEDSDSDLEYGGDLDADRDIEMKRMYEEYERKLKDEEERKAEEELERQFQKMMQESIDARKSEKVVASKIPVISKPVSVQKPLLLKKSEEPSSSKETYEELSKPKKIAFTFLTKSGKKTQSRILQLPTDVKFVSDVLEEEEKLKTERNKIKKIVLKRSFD

In the case of `COc1ccc(C[C@H]2NC[C@H](O)[C@H]2OC(C)=O)cc1` [anisomycin], the nonsense suppression (nonsense mutations) is reported as “able to suppress nonsense mutations”, the “loss of the killer phenotype (non-killer colonies / total colony forming units)” value [1] is reported as “approximately 53%” and the “overall translation (β-gal activities from pTI25) as percentage of the no drug controls” value (translation) is reported as at least 80%. The “titers of HIV” value (HIV) was “decrease titers of HIV”, the “HIV viral titers as % of the no drug controls” value (HIV; anisomycin at concentrations 1500-fold lower than MIC, 4 days) was “approximately 30%” and the “antiviral concentration relative to the MIC (fold lower)” value (HIV; concentration giving approximately 30% HIV titer) was 1500. For the same molecule, the “effectiveness in tcm1/mak8 mutants” value (tcm1/mak8 mutants) was “resistant; also recorded: ineffective”, the “L-BC dsRNA band” value [2] was “appears to missing” and the “minimum inhibitory concentration (MIC)” value (human host cells) was “about 1.5 ug/ml”.

For `NC[C@@H]1O[C@H](O[C@H]2[C@@H](O)[C@H](O[C@@H]3[C@@H](O)[C@H](N)C[C@H](N)[C@H]3O[C@H]3O[C@H](CO)[C@@H](O)[C@H](O)[C@H]3N)O[C@@H]2CO)[C@H](N)[C@@H](O)[C@@H]1O` [paromomycin], the nonsense suppression (nonsense mutations) was “able to suppress nonsense mutations”, the “PAROMOMYCIN SENSITIVITY (diameter of the zone of growth inhibition)” value ([3]; strain Wildtype (MOF+UPF+), disc 1.0 mg paromomycin, media lacking leucine) was 0.7 cm and the “PAROMOMYCIN SENSITIVITY (diameter of the zone of growth inhibition)” value ([3]; strain mof4-1 (UPF1::URA3) + pmof4XAB, disc 1.0 mg, media lacking uracil and leucine) was 1.6 cm. For the same molecule, the “PAROMOMYCIN SENSITIVITY (diameter of the zone of growth inhibition)” value ([3]; strain mof4-1 (UPF1::URA3) + pmof4XAE, disc 1.0 mg, media lacking uracil and leucine) was 2.3 cm, the “PAROMOMYCIN SENSITIVITY (diameter of the zone of growth inhibition)” value ([3]; strain mof4-1 (UPF1::URA3) + vector, disc 1.0 mg, media lacking uracil and leucine) was 1.7 cm and the “PAROMOMYCIN SENSITIVITY (diameter of the zone of growth inhibition)” value ([3]; strain mof4-1 + pYCpUPF1, disc 1.0 mg, media lacking uracil and leucine) was 1.6 cm. For the same molecule, the “PAROMOMYCIN SENSITIVITY (diameter of the zone of growth inhibition)” value ([3]; strain mof4-1 + vector, disc 1.0 mg, media lacking uracil and leucine) was 2.4 cm and the “PAROMOMYCIN SENSITIVITY (diameter of the zone of growth inhibition)” value ([3]; strain mof4-1, disc 1.0 mg paromomycin, media lacking leucine) was 2.0 cm.

B1: Upf3p (other, Saccharomyces cerevisiae, UniProt P48412 1-387, looked up)
chain: MSNVAGELKNSEGKKKGRGNRYHNKNRGKSKNETVDPKKNENKVNNATNATHNNSKGRRNNKKRNREYYNYKRKARLGKSTENEGFKLVIRLLPPNLTADEFFAILRDNNNDDGDKQDIQGKLKYSDWCFFEGHYSSKVFKNSTYSRCNFLFDNLSDLEKCANFIKTCKFIDNKDNITIPDMKLSPYVKKFTQTSKKDAALVGTIEEDEIFKTFMNSMKQLNENDEYSFQDFSVLKSLEKEFSKSIELENKIAERTERVLTELVGTGDKVKNKNKKKKNKNAKKKFKEEEASAKIPKKKRNRGKKKRENREKSTISKTKNSNVVIIEEAGKEVLKQRKKKMLLQEKLKISNSSQPQSSSAQTQPSFQPKENLFVPRVKILHRDDTKK
notes: Tested in a two-hybrid system; also called product of the UPF3 gene
B1: binds (Upf2p).

B2: Upf1p (other, Saccharomyces cerevisiae, UniProt P30771 1-971, looked up)
chain: MVGSGSHTPYDISNSPSDVNVQPATQLNSTLVEDDDVDNQLFEEAQVTETGFRSPSASDNSCAYCGIDSAKCVIKCNSCKKWFCNTKNGTSSSHIVNHLVLSHHNVVSLHPDSDLGDTVLECYNCGRKNVFLLGFVSAKSEAVVVLLCRIPCAQTKNANWDTDQWQPLIEDRQLLSWVAEQPTEEEKLKARLITPSQISKLEAKWRSNKDATINDIDAPEEQEAIPPLLLRYQDAYEYQRSYGPLIKLEADYDKQLKESQALEHISVSWSLALNNRHLASFTLSTFESNELKVAIGDEMILWYSGMQHPDWEGRGYIVRLPNSFQDTFTLELKPSKTPPPTHLTTGFTAEFIWKGTSYDRMQDALKKFAIDKKSISGYLYYKILGHQVVDISFDVPLPKEFSIPNFAQLNSSQSNAVSHVLQRPLSLIQGPPGTGKTVTSATIVYHLSKIHKDRILVCAPSNVAVDHLAAKLRDLGLKVVRLTAKSREDVESSVSNLALHNLVGRGAKGELKNLLKLKDEVGELSASDTKRFVKLVRKTEAEILNKADVVCCTCVGAGDKRLDTKFRTVLIDESTQASEPECLIPIVKGAKQVILVGDHQQLGPVILERKAADAGLKQSLFERLISLGHVPIRLEVQYRMNPYLSEFPSNMFYEGSLQNGVTIEQRTVPNSKFPWPIRGIPMMFWANYGREEISANGTSFLNRIEAMNCERIITKLFRDGVKPEQIGVITPYEGQRAYILQYMQMNGSLDKDLYIKVEVASVDAFQGREKDYIILSCVRANEQQAIGFLRDPRRLNVGLTRAKYGLVILGNPRSLARNTLWNHLLIHFREKGCLVEGTLDNLQLCTVQLVRPQPRKTERPMNAQFNVESEMGDFPKFQDFDAQSMVSFSGQIGDFGNAFVDNTELSSYINNEYWNFENFKSAFSQKQNRNEIDDRNLYQEEASHLNSNFARELQREEQKHELSKDFSNLGI
notes: Tested in a two-hybrid system; also called Upf1 protein; product of the UPF1/IFS2/MOF4 gene
B2: binds (Upf2p).

From patent publication US20070059684A1 (UNIVERSITY OF MEDICINE AND DENTISTRY OF NEW JERSEY, published 2007)
